{
  "source": "patent US20030215462A1",
  "about": "“Use of UGT inhibitors to increase bioavailability” (priority 2001, published 2003)",
  "key": {"[1]": {"system": "T1, UGT enzymes of human liver microsomes", "T1 construct": "percentage of control metabolism, 7-HFC glucuronidation; percentage of control metabolism, 7-HFC glucuronidation", "experiment": "Inhibition of 7-HFC glucuronidation in human liver microsomes", "format": "biochemical", "conditions": "7-HFC 50 μM, human liver microsomes 100 μg/ml, 15 min"}, "[2]": {"system": "UGT enzymes of human liver microsomes", "experiment": "Inhibition of raloxifene glucuronidation (G1, G2) in human liver microsomes", "format": "biochemical", "conditions": "raloxifene 50 μM; for % of control metabolism (SD, n = 3), raloxifene glucuronide G1 / % of control metabolism (SD, n = 3), raloxifene glucuronide G2: human liver microsomes 250 μg/ml, 15 min", "description": "Compounds were eluted using a binary solvent gradient system. […] Solvent B was methanol. […] Detection was at 280 nm."}},
  "note": "Where “and” joins values, the source holds several entries; their conditions need not be identical. Equal values may be shown once.",
  "data": [
    {"smiles": "CC(CCc1ccccc1)NCC(O)c1ccc(O)c(C(N)=O)c1", "note": "(stereo not shown) [Labetalol, labetalol]", "values": [
      {"measurement": "% of control metabolism (SD, n = 3), 7-HFC glucuronidation", "setting": "[1]; inhibitor 500 μM", "result": "95 (2) %"},
      {"measurement": "% of control metabolism (SD, n = 3), raloxifene glucuronide G1", "setting": "[2]; inhibitor 500 μM", "result": "104 (11) %"},
      {"measurement": "% of control metabolism (SD, n = 3), raloxifene glucuronide G2", "setting": "[2]; inhibitor 500 μM", "result": "102 (4) %"}
    ]},
    {"smiles": "CCCOC(=O)c1cc(O)c(O)c(O)c1", "note": "[Propyl gallate]", "values": [
      {"measurement": "% of control metabolism (SD, n = 3), 7-HFC glucuronidation", "setting": "[1]; inhibitor 200 μM", "result": "71 (1) %"},
      {"measurement": "% of control metabolism (SD, n = 3), 7-HFC glucuronidation", "setting": "[1]; inhibitor 500 μM", "result": "63 (0), % and 59 (1) %"},
      {"measurement": "% of control metabolism (SD, n = 3), raloxifene glucuronide G1", "setting": "[2]; inhibitor 25 μM", "result": "58 (4) %"},
      {"measurement": "% of control metabolism (SD, n = 3), raloxifene glucuronide G1", "setting": "[2]; inhibitor 50 μM", "result": "45 (6) %"},
      {"measurement": "% of control metabolism (SD, n = 3), raloxifene glucuronide G1", "setting": "[2]; inhibitor 100 μM", "result": "48 (2) %"},
      {"measurement": "% of control metabolism (SD, n = 3), raloxifene glucuronide G1", "setting": "[2]; inhibitor 500 μM", "result": "21 (1) %"},
      {"measurement": "% of control metabolism (SD, n = 3), raloxifene glucuronide G2", "setting": "[2]; inhibitor 25 μM", "result": "60 (4) %"},
      {"measurement": "% of control metabolism (SD, n = 3), raloxifene glucuronide G2", "setting": "[2]; inhibitor 50 μM", "result": "48 (6) %"},
      {"measurement": "% of control metabolism (SD, n = 3), raloxifene glucuronide G2", "setting": "[2]; inhibitor 100 μM", "result": "52 (3) %"},
      {"measurement": "% of control metabolism (SD, n = 3), raloxifene glucuronide G2", "setting": "[2]; inhibitor 500 μM", "result": "33 (2) %"},
      {"measurement": "% of control metabolism, raloxifene G1", "setting": "[2]; inhibitor 25 μM", "result": "58 (4) %"},
      {"measurement": "% of control metabolism, raloxifene G2", "setting": "[2]; inhibitor 25 μM", "result": "60 (4) %"},
      {"measurement": "% of control metabolism, raloxifene G1", "setting": "[2]; inhibitor 50 μM", "result": "45 (6) %"},
      {"measurement": "% of control metabolism, raloxifene G2", "setting": "[2]; inhibitor 50 μM", "result": "48 (6) %"},
      {"measurement": "% of control metabolism, raloxifene G1", "setting": "[2]; inhibitor 100 μM", "result": "48 (2) %"},
      {"measurement": "% of control metabolism, raloxifene G2", "setting": "[2]; inhibitor 100 μM", "result": "52 (3) %"}
    ]}
  ]
}
